Measured values from ChEMBL document CHEMBL5360618, “PepScaf: Harnessing Machine Learning with In Vitro Selection toward De Novo Macrocyclic Peptides against IL-17C/IL-17RE Interaction” (J Med Chem, 2023).
Positions of bridges follow the written chain, without caps; N, C: chain ends. Residues, ends and D or L forms follow the SMILES beside them.

What follows are compounds tested against T1, IL17-RE-IL-17C (Homo sapiens, UniProt Q8NFR9+Q9P0M4) (assay: Inhibition of IL-17C/IL-17RE interaction (unknown origin) incubated for 1.5 hrs by ELISA method).
T1 sequence (Q9P0M4 whole entry): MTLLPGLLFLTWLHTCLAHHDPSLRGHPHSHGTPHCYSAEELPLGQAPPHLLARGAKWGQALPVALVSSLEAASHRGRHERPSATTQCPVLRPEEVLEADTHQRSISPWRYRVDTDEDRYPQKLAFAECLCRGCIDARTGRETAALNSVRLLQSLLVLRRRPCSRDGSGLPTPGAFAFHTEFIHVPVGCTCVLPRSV
T1 sequence (Q8NFR9 whole entry): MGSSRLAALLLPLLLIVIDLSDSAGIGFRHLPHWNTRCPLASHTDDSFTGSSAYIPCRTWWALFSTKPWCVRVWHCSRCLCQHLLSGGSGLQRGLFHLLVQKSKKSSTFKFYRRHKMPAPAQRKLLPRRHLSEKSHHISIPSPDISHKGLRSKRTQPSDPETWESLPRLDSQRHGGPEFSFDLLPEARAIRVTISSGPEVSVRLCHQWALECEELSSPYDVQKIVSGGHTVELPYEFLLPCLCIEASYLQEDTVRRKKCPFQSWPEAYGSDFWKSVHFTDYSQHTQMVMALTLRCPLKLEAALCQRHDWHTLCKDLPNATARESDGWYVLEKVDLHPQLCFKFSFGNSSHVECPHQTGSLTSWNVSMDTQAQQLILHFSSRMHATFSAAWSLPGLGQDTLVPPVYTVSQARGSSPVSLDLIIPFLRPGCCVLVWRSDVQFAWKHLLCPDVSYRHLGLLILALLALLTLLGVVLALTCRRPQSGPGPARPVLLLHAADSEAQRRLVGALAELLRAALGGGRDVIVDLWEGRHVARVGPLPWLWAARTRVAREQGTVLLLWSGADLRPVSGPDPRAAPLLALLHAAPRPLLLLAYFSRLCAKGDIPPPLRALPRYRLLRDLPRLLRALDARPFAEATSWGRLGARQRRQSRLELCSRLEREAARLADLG
Format: protein-complex assay
`CC(C)C[C@@H]1NC(=O)[C@H](CO)NC(=O)CNC(=O)[C@H](Cc2ccc(O)cc2)NC(=O)[C@H](CC(C)C)NC(=O)[C@H](CO)NC(=O)[C@H](Cc2ccc(O)cc2)NC(=O)[C@H](Cc2ccc(O)cc2)NC(=O)[C@H](Cc2ccc(O)cc2)NC(=O)[C@H](C(C)C)NC(=O)[C@H](Cc2c[nH]cn2)NC(=O)[C@H](Cc2ccc(O)cc2)NC(=O)CSC[C@@H](C(=O)NCC(N)=O)NC(=O)CNC1=O` ({CH2CO}-YHVYYYSLYGSLGCG-NH2; thioether N-14) gave an IC50 of 0.0033 µM.
`CC[C@H](C)[C@@H]1NC(=O)[C@H](CO)NC(=O)[C@H](Cc2ccc(O)cc2)NC(=O)[C@H]([C@@H](C)CC)NC(=O)[C@H]([C@@H](C)O)NC(=O)[C@H](CC(C)C)NC(=O)[C@H](CC(=O)O)NC(=O)[C@H]([C@@H](C)CC)NC(=O)[C@H](C(C)C)NC(=O)[C@H](Cc2ccc(O)cc2)NC(=O)[C@H](CC(=O)O)NC(=O)[C@H](CCCCN)NC(=O)[C@H](Cc2ccc(O)cc2)NC(=O)CSC[C@@H](C(=O)NCC(N)=O)NC1=O` ({CH2CO}-YKDYVIDLTIYSICG-NH2; thioether N-14) showed an IC50 of over 30 µM.
`CC(C)C[C@@H]1NC(=O)[C@H](Cc2c[nH]c3ccccc23)NC(=O)[C@H](C)NC(=O)[C@H](CC(=O)O)NC(=O)[C@H](Cc2ccccc2)NC(=O)[C@H](Cc2c[nH]cn2)NC(=O)[C@H](Cc2ccc(O)cc2)NC(=O)CSC[C@@H](C(=O)NCC(N)=O)NC(=O)[C@H](CC(C)C)NC(=O)[C@H](CC(C)C)NC(=O)[C@H]([C@@H](C)O)NC(=O)[C@H](CO)NC1=O` ({CH2CO}-YHFDAWLSTLLCG-NH2; thioether N-12) showed an IC50 of over 30 µM.
With `CC(C)C[C@@H]1NC(=O)[C@H](Cc2c[nH]c3ccccc23)NC(=O)[C@H](Cc2ccccc2)NC(=O)[C@H](CC(N)=O)NC(=O)[C@H](Cc2ccc(O)cc2)NC(=O)[C@H](CO)NC(=O)[C@H](Cc2ccc(O)cc2)NC(=O)[C@H](CCCNC(=N)N)NC(=O)[C@H](CC(C)C)NC(=O)[C@H](CC(=O)O)NC(=O)[C@H](Cc2ccc(O)cc2)NC(=O)CSC[C@@H](C(=O)NCC(N)=O)NC(=O)[C@H](C)NC1=O` ({CH2CO}-YDLRYSYNFWLACG-NH2; thioether N-13) the IC50 was over 30 µM.
In the case of `CC[C@H](C)[C@@H]1NC(=O)[C@H](CCCNC(=N)N)NC(=O)[C@H](Cc2ccc(O)cc2)NC(=O)[C@H](Cc2ccc(O)cc2)NC(=O)[C@H](Cc2c[nH]cn2)NC(=O)[C@H](CCCNC(=N)N)NC(=O)[C@H](Cc2ccc(O)cc2)NC(=O)CSC[C@@H](C(=O)NCC(N)=O)NC(=O)CNC(=O)[C@H](CC(C)C)NC(=O)[C@H](CCC(=O)O)NC(=O)CNC(=O)[C@H](Cc2ccc(O)cc2)NC(=O)[C@H](CC(C)C)NC1=O` ({CH2CO}-YRHYYRILYGELGCG-NH2; thioether N-14), the IC50 is reported as over 30 µM.
`CC[C@H](C)[C@@H]1NC(=O)[C@H](CCCNC(=N)N)NC(=O)[C@H](Cc2ccc(O)cc2)NC(=O)[C@H](Cc2ccc(O)cc2)NC(=O)[C@H](Cc2c[nH]cn2)NC(=O)[C@H](Cc2c[nH]cn2)NC(=O)[C@H](Cc2ccc(O)cc2)NC(=O)CSC[C@@H](C(=O)NCC(N)=O)NC(=O)[C@H](C)NC(=O)[C@H](CC(C)C)NC(=O)[C@H](CCC(=O)O)NC(=O)CNC(=O)[C@H](Cc2ccc(O)cc2)NC(=O)[C@H](CC(C)C)NC1=O` ({CH2CO}-YHHYYRILYGELACG-NH2; thioether N-14) was tested, and the IC50 was 0.865 µM.
`CC(C)C[C@@H]1NC(=O)[C@H](Cc2c[nH]c3ccccc23)NC(=O)[C@H](CO)NC(=O)[C@H](CC(=O)O)NC(=O)[C@H](Cc2ccccc2)NC(=O)[C@H](Cc2c[nH]cn2)NC(=O)[C@H](Cc2ccc(O)cc2)NC(=O)CSC[C@@H](C(=O)NCC(N)=O)NC(=O)[C@H](CCCCN)NC(=O)[C@H](CC(C)C)NC(=O)[C@H](CCCNC(=N)N)NC(=O)[C@H](CCCCN)NC(=O)[C@H](C)NC1=O` ({CH2CO}-YHFDSWLAKRLKCG-NH2; thioether N-13) was tested, and the IC50 was over 30 µM.
